Source: ChEMBL document CHEMBL3045943, “Novel N-aryl(alkaryl)-2-[(3-R-2-oxo-2H-[1,2,4]triazino[2,3-c]quinazoline-6-yl)thio]acetamides: synthesis, cytotoxicity, anticancer activity, COMPARE analysis and docking” (2013)

Columns and labels:
Assay type in all cases: functional
NCI-H522 = test: Cytotoxicity against Homo sapiens (human) NCI-H522 cells assessed as cell growth at 10 uM after 48 hr by SRB assay relative to control; conditions: NCI-H522, 48 h, read-out: Activity
SR = test: Cytotoxicity against Homo sapiens (human) SR cells assessed as cell growth at 10 uM after 48 hr by SRB assay relative to control; conditions: read-out: Activity
[1] = tested on: Photobacterium leiognathi; test: Growth inhibition of Photobacterium leiognathi Sh1 assessed as bio-luminescence at 0.1 mg/ml after 10 min by acute action test relative to control; set-up: scale not given: the % may be the effect or the level left
[2] = tested on: Photobacterium leiognathi; test: Growth inhibition of Photobacterium leiognathi Sh1 assessed as bio-luminescence at 0.025 mg/ml after 10 min by acute action test relative to control; set-up: scale not given: the % may be the effect or the level left
[3] = tested on: Photobacterium leiognathi; test: Growth inhibition of Photobacterium leiognathi Sh1 assessed as bio-luminescence at 0.025 mg/ml after 16 to 18 hr by chronic action test relative to control; set-up: scale not given: the % may be the effect or the level left
[4] = tested on: Photobacterium leiognathi; test: Growth inhibition of Photobacterium leiognathi Sh1 assessed as bio-luminescence at 0.25 mg/ml after 16 to 18 hr by chronic action test relative to control; set-up: scale not given: the % may be the effect or the level left
[5] = tested on: Photobacterium leiognathi; test: Growth inhibition of Photobacterium leiognathi Sh1 assessed as bio-luminescence at 0.25 mg/ml after 10 min by acute action test relative to control; set-up: scale not given: the % may be the effect or the level left
[6] = tested on: Photobacterium leiognathi; test: Growth inhibition of Photobacterium leiognathi Sh1 assessed as bio-luminescence at 0.1 mg/ml after 16 to 18 hr by chronic action test relative to control; set-up: scale not given: the % may be the effect or the level left
MOLT-4 = test: Cytotoxicity against Homo sapiens (human) MOLT4 cells assessed as cell growth at 10 uM after 48 hr by SRB assay relative to control; conditions: MOLT-4, 48 h, read-out: Activity
UO-31 = test: Cytotoxicity against Homo sapiens (human) UO31 cells assessed as cell growth at 10 uM after 48 hr by SRB assay relative to control; conditions: UO-31, 48 h, read-out: Activity
K562 = test: Cytotoxicity against Homo sapiens (human) K562 cells assessed as cell growth at 10 uM after 48 hr by SRB assay relative to control; conditions: K562, 48 h, read-out: Activity
LOX IMVI = test: Cytotoxicity against Homo sapiens (human) LOXIMVI cells assessed as cell growth at 10 uM after 48 hr by SRB assay relative to control; conditions: read-out: Activity
U-251 = test: Cytotoxicity against Homo sapiens (human) U251 cells assessed as cell growth at 10 uM after 48 hr by SRB assay relative to control; conditions: U-251, 48 h, read-out: Activity

Structure (SMILES) | growth at 10 µM (NCI-H522) [%] | growth at 10 µM (SR) [%] | Activity [1] [%] | Activity [2] [%] | Activity [3] [%] | Activity [4] [%] | Activity [5] [%] | Activity [6] [%] | growth at 10 µM (MOLT-4) [%] | growth at 10 µM (UO-31) [%] | growth at 10 µM (K562) [%] | growth at 10 µM (LOX IMVI) [%] | growth at 10 µM (U-251) [%]
Cc1ccc(-c2nn3c(SCC(=O)Nc4ccccc4C(=O)O)nc4ccccc4c3nc2=O)cc1 | 78.2 | – | – | – | – | – | – | – | – | – | – | – | –
Cc1ccc(CNC(=O)CSc2nc3ccccc3c3nc(=O)c(C)nn23)cc1 | – | 81.8 | 100 | 88.3 | 122.2 | 150 | 128.6 | 212.8 | – | – | – | – | –
COc1ccccc1CNC(=O)CSc1nc2ccccc2c2nc(=O)c(C)nn12 | – | 75.6 | 110 | 89.2 | 93.3 | 188 | 139.4 | 160 | – | – | – | – | –
COc1ccc(CNC(=O)CSc2nc3ccccc3c3nc(=O)c(C)nn23)cc1 | – | 71.5 | 130 | 92.3 | 138.7 | 180 | 151.5 | 176 | – | – | – | – | –
COc1ccc(CNC(=O)CSc2nc3ccccc3c3nc(=O)c(-c4ccccc4)nn23)cc1 | – | – | 106.2 | 111.5 | 50 | 40 | 138.7 | 44.4 | 78.7 | – | – | – | –
Cc1nn2c(SCC(=O)NCc3cccc(C(F)(F)F)c3)nc3ccccc3c2nc1=O | – | – | 75 | 66.7 | 123.6 | 193.3 | 100 | 92.3 | – | 54.5 | – | – | –
O=C(CSc1nc2ccccc2c2nc(=O)c(-c3ccccc3)nn12)NCc1cccc(C(F)(F)F)c1 | – | – | 33.33 | 66.67 | 13.33 | 0 | 17.78 | 10.67 | – | – | – | – | –
Cc1nn2c(SCC(=O)NCc3ccccc3F)nc3ccccc3c2nc1=O | – | – | 66.7 | 116.7 | 130.2 | 200 | 170 | 233.3 | – | – | 77.8 | – | –
Cc1nn2c(SCC(=O)NCc3ccc(F)cc3)nc3ccccc3c2nc1=O | – | – | 78.8 | 77.8 | 118.2 | 200 | 91.7 | 123.1 | – | 61.6 | – | – | –
Cc1nn2c(SCC(=O)NCCc3ccccc3)nc3ccccc3c2nc1=O | – | – | 87.5 | 72.2 | 136.4 | 133.3 | 100 | 100 | – | 77.3 | – | – | –
O=C(CSc1nc2ccccc2c2nc(=O)c(-c3ccccc3)nn12)NCCc1ccccc1 | – | – | 121.5 | 109.5 | 222.2 | 57.1 | 119.4 | 400 | – | – | – | 61.1 | –
Cc1ccc(-c2nn3c(SCC(=O)Nc4ccc(C(F)(F)F)cc4)nc4ccccc4c3nc2=O)cc1 | – | 66 | 113.3 | 103.3 | 51.2 | 100 | 142.5 | 116.7 | – | – | – | – | –
Cc1nn2c(SCC(=O)Nc3ccccc3F)nc3ccccc3c2nc1=O | – | – | 73.03 | 84.27 | 142.86 | 142.86 | 50.56 | 196.43 | – | – | – | – | –
O=C(CSc1nc2ccccc2c2nc(=O)c(-c3ccccc3)nn12)Nc1cccc(F)c1 | – | – | 90.91 | 94.55 | 44.44 | 92.59 | 96.36 | 38.89 | – | – | – | – | –
Cc1ccc(-c2nn3c(SCC(=O)Nc4cccc(F)c4)nc4ccccc4c3nc2=O)cc1 | – | – | 93.48 | 97.83 | 69.51 | 41.46 | 65.22 | 32.93 | – | – | – | – | –
Cc1ccc(-c2nn3c(SCC(=O)Nc4ccc(F)cc4)nc4ccccc4c3nc2=O)cc1 | – | – | 36.73 | 75.51 | 250 | 166.67 | 8.16 | 133.33 | – | – | – | – | –

Structure (SMILES) | growth at 10 µM (NCI-H522) [%] | growth at 10 µM (SR) [%] | Activity [1] [%] | Activity [2] [%] | Activity [3] [%] | Activity [4] [%] | Activity [5] [%] | Activity [6] [%] | growth at 10 µM (MOLT-4) [%] | growth at 10 µM (UO-31) [%] | growth at 10 µM (K562) [%] | growth at 10 µM (LOX IMVI) [%] | growth at 10 µM (U-251) [%]
O=C(CSc1nc2ccccc2c2nc(=O)c(-c3ccccc3)nn12)Nc1cccc(Cl)c1 | – | – | 109.52 | 104.76 | 101.39 | 101.39 | 59.52 | 100 | – | – | – | – | –
Cc1nn2c(SCC(=O)Nc3cccc(Cl)c3)nc3ccccc3c2nc1=O | – | – | 99.1 | 99.3 | 185.2 | 42.9 | 104.5 | 250 | – | – | 57.2 | – | –
O=C(CSc1nc2ccccc2c2nc(=O)c(-c3ccccc3)nn12)Nc1ccc(Cl)cc1 | – | – | 120 | 100 | 88.9 | 87.5 | 142.9 | 212.8 | 77.5 | – | – | – | –
Cc1ccc(-c2nn3c(SCC(=O)Nc4ccc(Cl)cc4)nc4ccccc4c3nc2=O)cc1 | – | – | 63.83 | 68.09 | 75 | 37.5 | 31.91 | 93.75 | – | – | – | – | –
Cc1ccc(-c2nn3c(SCC(=O)Nc4ccccc4[N+](=O)[O-])nc4ccccc4c3nc2=O)cc1 | – | – | 36 | 83.3 | 93 | 50 | 62.5 | 250 | – | – | – | – | –
Cc1nn2c(SCC(=O)NCc3ccccc3)nc3ccccc3c2nc1=O | – | – | 87.5 | 66.7 | 72.7 | 250 | 91.7 | 115.4 | 78.5 | – | – | – | –
Cc1nn2c(SCC(=O)Nc3ccccc3)nc3ccccc3c2nc1=O | – | – | 98.53 | 95.59 | 88.89 | 57.78 | 95.59 | 61.11 | – | – | – | – | –
O=C(CSc1nc2ccccc2c2nc(=O)c(-c3ccccc3)nn12)Nc1ccccc1 | – | – | 78.57 | 95.24 | 90.28 | 80.56 | 47.62 | 83.33 | – | – | – | – | –
COc1ccc(-c2nn3c(SCC(=O)Nc4ccccc4C)nc4ccccc4c3nc2=O)cc1 | – | – | 82.46 | 96.49 | 90.91 | 94.55 | 68.42 | 94.55 | – | – | – | – | –
Cc1cccc(NC(=O)CSc2nc3ccccc3c3nc(=O)c(C)nn23)c1 | – | – | 98.92 | 96.77 | 196.43 | 14.29 | 73.12 | 178.57 | – | – | – | – | –
COc1ccccc1NC(=O)CSc1nc2ccccc2c2nc(=O)c(-c3ccccc3)nn12 | – | – | 63.46 | 71.15 | 22.73 | 18.18 | 53.85 | 11.36 | – | – | – | – | –
COc1ccc(NC(=O)CSc2nc3ccccc3c3nc(=O)c(-c4ccc(C)cc4)nn23)cc1 | 57.9 | – | 106 | 88.3 | 95.6 | 75 | 142.9 | 117 | – | – | – | – | 61.1
Cc1nn2c(SCC(=O)Nc3ccccc3C(F)(F)F)nc3ccccc3c2nc1=O | – | – | 86.67 | 88.89 | 100 | 97.14 | 88.89 | 100 | – | – | – | – | –
O=C(CSc1nc2ccccc2c2nc(=O)c(-c3ccccc3)nn12)Nc1cccc(C(F)(F)F)c1 | – | – | 100 | 96.67 | 187.5 | 187.5 | 46.67 | 203.13 | – | – | – | – | –
CN(C)[C@@H]1C(O)=C(C(N)=O)C(=O)[C@@]2(O)C(O)=C3C(=O)c4c(O)cccc4[C@@](C)(O)[C@H]3C[C@@H]12 [TETRACYCLINE] | – | – | 9.1 | 80.7 | 0 | 0 | 0 | 0 | – | – | – | – | –
